This note sets out measurements from patent US8388975B2, “Cancer antigen peptides derived from WT1” (International Institute of Cancer Immunology, Inc., priority 2004, dated 2013).

Read-outs that look alike come from different tables or passages of the source. Ends that are not written are not given here.

For data set [1], the system named is B-LCL cells.
Method: (§1) The cytotoxic activity of CTLs on target cells was measured by ^51Cr-release assay. The ^51Cr-labeled target cells (1×10^4 cells/100 μL in total) were cocultured with different numbers of effector cells (100 μL) in a round-bottom 96-well plate. After culturing at 37° C. for 3-5 hours, the plate was centrifuged to separate the supernatant (100 μL) which was subjected to the measurement of γ ray. Specific cytotoxicity (% specific lysis) was calculated as follows: % specific lysis=(cpm experimental release−cpm spontaneous release)/(cpm maximal release−cpm spontaneous release)×100
One week later, PBMCs were pulsed with the peptide of SEQ ID NO: 8, and used as stimulators in the stimulation. The stimulation was conducted every one week 3 times in total. After 3 times of stimulation, CD8-positive cells were enriched by negative selection method. Further, stimulation with the peptide of SEQ ID NO: 8 was conducted 2 times. […] Experiments were carried out in the same manner as above using a peptide of SEQ ID NO: 9 and a peptide of SEQ ID NO: 2.
The subject of data set [2] is B-LCL cells. This is another data set of the same source.
Method: as §1

Method for JY cell line: (§2) After obtaining informed-consent, blood was collected from HLA-A*0201-positive healthy subjects and peripheral blood mononuclear cells (PBMCs) were isolated using Ficoll-Hypaque separation solution. HLA-A*0201-positive T2 cell lines incapable of presenting endogenous peptides to HLA due to deficit in TAP gene (J. Immunol. 150: 1763, 1993) were pulsed with the peptide of SEQ ID NO: 3 at 20 μM for 2 hours, then radiated (7500 cGy), and co-cultured with PBMCs at the cell number ratio of 1:1. As the culture solution, a complete medium composed of 45% AIM-V medium, 45% RPMI1640 medium, 10% inactivated human serum, 0.1 mM MEM non-essential amino acids, 100 ng/mL streptomycin, 100 IU/mL penicillin and 25 ng/mL 2-mercaptoethanol was used. Seven days later, the second-time stimulation was conducted in a similar manner, and thereto was added 25 IU/mL of IL-2 (Shionogi & Co., Ltd) on the next day. Stimulation was conducted five times in total, and effector cells obtained after 5 days from the last stimulation were used in the measurement of cytotoxicity.
(§3) The cytotoxic activity of CTLs on target cells was measured by ^51Cr-release assay. […] Specific cytotoxicity (% specific lysis) was calculated as follows: % specific lysis=(cpm experimental release−cpm spontaneous release)/(cpm maximal release−cpm spontaneous release)×100
Method for T2 cells: After obtaining informed-consent, blood was collected from HLA-A*0201-positive healthy subjects and peripheral blood mononuclear cells (PBMCs) were isolated using Ficoll-Hypaque separation solution. HLA-A*0201-positive T2 cell lines incapable of presenting endogenous peptides to HLA due to deficit in TAP gene (J. Immunol. 150: 1763, 1993) were pulsed with the peptide of SEQ ID NO: 3 at 20 μM for 2 hours, then radiated (7500 cGy), and co-cultured with PBMCs at the cell number ratio of 1:1. […]
as §3
The “spontaneous release” and the “maximal release” were measured in the supernatant obtained from the culture of target cells and that obtained from the culture of target cells treated with 1% Triton X-100 solution, respectively. […] The cytotoxic activity was measured using, as target cells, T2 cells pulsed with the same peptide as used in the stimulation or T2 cells not pulsed with the peptide.
Method for TF-1 cell line: as §2, §3

Consider “DLNALLPAV [SEQ ID NO: 3, Asp Leu Asn Ala Leu Leu Pro Ala Val]”, for which the “cytotoxic activity of CTLs induced by stimulation with the peptide on TF-1 cells” value in the data set on TF-1 cell line is reported as “killed TF-1 cells”. In addition, the “cytotoxic activity of CTLs induced by stimulation with the peptide on JY cells” value in the data set on JY cell line is “not JY cells”. In addition, in the data set with T2 cells, the “cytotoxic activity (% specific lysis) of CTLs induced by stimulation with the peptide” value (“cytotoxic activity (% specific lysis)” below) is “more potent cytotoxic activity on T2 cells pulsed with the peptide than on T2 cells not-pulsed with the peptide”.
As to DQLKRHQRR [SEQ ID NO: 2], the “cytotoxic activity (% specific lysis)” value in the data set on B-LCL cells [1] and in the data set with B-LCL cells [2] was “more potent cytotoxic activity on B-LCL cells pulsed with the peptide than on B-LCL cells not-pulsed with the peptide” in each case.
In the case of QGSLGEQQY [SEQ ID NO: 9], the “cytotoxic activity (% specific lysis)” value in the data set with B-LCL cells [1] is listed as “more potent cytotoxic activity on B-LCL cells pulsed with the peptide than on B-LCL cells not-pulsed with the peptide”.
Consider VTFDGTPSY [SEQ ID NO: 8], for which the “cytotoxic activity (% specific lysis)” value with B-LCL cells [1] is listed as “more potent cytotoxic activity on B-LCL cells pulsed with the peptide than on B-LCL cells not-pulsed with the peptide”.
